Experimental data as given in patent publication US20150038575A1, “MELANOGENESIS-INHIBITORY CONSTITUENTS OF Ligusticum sinense” (priority 2013, published 2015).

Legend:
[1] = system: B16-F10 murine melanoma cells; experiment: Analysis of melanin content in B16-F10 murine melanoma cells (α-MSH stimulated); assay type: cell-based; conditions: for melanin content in the melanoma cells: B16-F10 cells, 25, 50 and 100 μM, FIG. 8B; for melanin content in the melanoma cells / IC50: 100 nM α-MSH, 72 hours; for IC50: Mus musculus, B16-F10 cells, read-out: IC50 for inhibiting the melanogenesis; for inhibitory activity of melanogenesis: summary statement on the isolated compounds
Experimental: The melanin content in B16-F10 murine melanoma cells was analyzed by a modified Hosoi method disclosed in 1985 (Hosoi J, Abe E, Suda T, Kuroki T, Regulation of melanin synthesis of B16 mouse melanoma cells by 1 alpha, 25-dihydroxyvitamin D3 and retinoic acid. Cancer Res. 1985; 45(4):1474-8).
First, in a 12-wells cell plate, 1×10^3 cells were implanted into each well and stayed for 24 hours to let the cells attach to the wall of the well. Various concentrations (25, 50, and 100 μM) of the compounds I, II, III, and arbutin (positive control; PC) were respectively added into each wells, and 100 nM of α-melanocyte stimulating hormone (α-MSH) was subsequently adaded. The cells were cultured for 72 hours. After the treatment above, cells were washed by PBS, and then treated by trypsin to desorb the cells. 150 μL of 1N NaOH solution containing 10% DMSO was then added and heated in a 80° C. water bath for 1 hour. After cooling to room temperature, the samples were centrifuge at 5000 rpm for 10 minutes. The upper solution was transferred into a 96-wells plate and analyzed by a microplate reader at 405 nm. The absorbance at 405 nm for each sample was read to calculate the melanin content of each sample.

[2] = system: NHEKs in Leiden epidermal models (LEMs); experiment: Viability test of human epidermal skin equivalents (Leiden epidermal models, MTT); assay type: cell-based; conditions: 24 hours exposure
Experimental: In this test, fresh mamma reduction surplus skin of a single individual (D002, Fitzpatrick skin type I/II) was used for isolation of normal human epidermal keratinocytes (NHEKs).
Leiden epidermal models (LEMs) were generated by seeding NHEKs on an inert filter insert. The NHEKs in LEMS were incubated overnight under submerged conditions in keratinocyte medium. Within four days, fetal bovine serum was gradually omitted and the NHEKs in LEMs were cultured serum-free at the air-liquid interface for 7 days, while culture medium was refreshed twice a week.
Viability assays were performed by adding 0,5 mL of 1 mg/mL MTT to each of the NHEKs in LEMs for 3h, after 24 hours exposure to the test articles (compounds II, III, and DMSO (negative control)). The precipitated blue formazan product was extracted from the cells within 2 hours with 0.5 mL isopropanol per well. The concentration of formazan was measured by determining the OD at 570 nm using a Tecan Infinite F50 microplate reader.

[3] = system: B16-F10 murine melanoma cells; experiment: Viability test of B16-F10 murine melanoma cells (MTT assay); assay type: cell-based; conditions: 72 hours; for cell viability: FIG. 8A
Experimental: In this test, B16-F10 murine melanoma cells (BCRC No. 60031) were used.
First, the B16-F10 murine melanoma cells were cultured in Dulbecco's Modified Eagle's Medium (abbreviated as DMEM, which contains 90% (v/v) DMEM, 10% (v/v) fetal bovine serum), and additionally added 1% (v/v) Penicillin-Streptomycin Solution. Then, the cells in the mediums were incubated under 5% CO2/air at 37° C. in 70% of humidity. The medium was exchanged every two days. When the cells grew to a density of 80-90%, the cells were treated by trypsin to desorb the cells from the walls of containers Next, haemocytometer (Neubauer Improved., Marienfeld, Germany) was used to count the number of the cells. Proper amount of cells were then transplanted into cell culture plates to prepare for cell viability tests.
Cell viability rate was determined by MTT assay. MTT assay was performed by using […] in the mitochondria of living cells to reduce yellow 3-(4,5-dimethylthiazol-2-yl)-2,5-diphenyl tetrazolium bromide (MTT) to purple formazan product. Therefore, the amount of the purple formazan product is proportional to the number of the living cells and thus can be determined by spectrophotomter.
In a 12-wells cell plate, 1×10^3 cells were implanted into each well and stayed for 24 hours to let the cells attach to the wail of the well. Then, the compounds I, II, Ill and arbutin (positive control; PC) were respectively added into each wells and cultured for 72 hours. Next, MTT dye (Applichem Co., Denmark) dissolved in 0.5 mg/ml PBS solution was added to each well to react for 2 hours. The obtained purple formazan product was dissolved in 400 μL of DMSO, and then the absorbance of the purple DMSO solution was analyzed by microplate reader to get the absorbance at 570 nm. The cell viability rate was determined by the formula below.
Cell viability rate (%)=(Absorbance of test group/absorbance of blank group)×100%

[4] = system: tyrosinase; experiment: Assay of tyrosinase activity (L-tyrosine substrate, absorbance at 475 nm); assay type: biochemical; conditions: mushroom tyrosinase, pH 6.8, 37° C.
Experimental: The source of the tested tyrosinase was from mushroom, and the substrate of the tyrosinase was L-tyrosine. The experiment was performed by the method below. First, 40 μL of pH 6.8 phosphate buffer solution, 40 μL of various sample solution (samples in 0.07M pH6.8 phosphate buffer solution containing 0.1 vol % of DMSO), and 40 μL of tyrosinase (250 unit/mL, dissolved in pH 6.8 phosphate buffer solution at a concentration of 0.07 M) were sequentially and respectively added into 96-wells plate. The sample solutions above respectively contain the compounds II, III, and kojic acid. The group added with the sample solution containing kojic acid was used as positive control (PC). A group without adding the sample solution was used as control (C). The mixtures described above were thermostat at 37° C. for 10 minutes. Then, 80 μL of tyrosine solutions (0.4 mg/mL, dissolved in 0.07M pH6.8 phosphate buffer solution) were respectively added into each mixture and thermostat for another 20 minutes to perform reaction. The amount of the obtained product L-DOPA of each mixture was measured at 475 nm to get absorbance of each sample. Therefore, the tyrosinase activity was calculated by the formula below. Tyrosinase activity(%)=[(A−B)/(C−D)]×100 The symbol A above is the absorbance of groups containing a sample and tyrosinase. The symbol B above is the absorbance of groups containing a sample but not tyrosinase. The symbol C above is the absorbance of groups containing tyrosinase but not a sample.

[5] = concentration of 10-100 μM, FIG. 8C

| IC50 [1] [µM] | inhibitory effect to the tyrosinase activity [4] | Structure (SMILES) | melanin content in the melanoma cells [1] | inhibitory activity of melanogenesis [1] | cytotoxicity to the NHEKs in the Leiden epidermal models [2] | cell viability ([2]; 10 μM) [%] | cell viability ([2]; 50 μM) [%] | cell viability ([2]; 100 μM) [%] | cell viability [2, 5] | cytotoxicity to the B16-F10 murine melanoma cells [3] | cell growth ([3]; at a concentration of 100 μM) | cell viability [3] |
| --- | --- | --- | --- | --- | --- | --- | --- | --- | --- | --- | --- | --- |
| 78.9 ± 8.1 | do not show obvious inhibitory effect | C=CC(c1ccc(O)c(OC)c1)c1cc(/C=C/C(=O)O)cc(OC)c1O (stereo not drawn) [compound III] | can decrease the melanin content | have inhibitory activity of melanogenesis | did not have cytotoxicity | 98 | 104 | 106 | did not affect the cell viability | did not have cytotoxicity | slight tendency to inhibit cell growth |  |
| 31.1 ± 6.8 | do not show obvious inhibitory effect | CCCC[C@@H]1OC(=O)C2=CCCC[C@H]21 [compound II, Neocnidilide] | can decrease the melanin content | have inhibitory activity of melanogenesis | did not have cytotoxicity | 97 |  | 92 | did not affect the cell viability | did not have cytotoxicity |  | did not affect the cell viability |
| 100 ± 12.9 | do not show obvious inhibitory effect | CCCC[C@@H]1OC(=O)[C@H]2CCCC[C@@H]12 [compound I, 3-Butylhexahydrophthalide] | can decrease the melanin content | have inhibitory activity of melanogenesis |  |  |  |  |  | did not have cytotoxicity |  | did not affect the cell viability |
